{"source": "paper PMC8504577", "about": "“Evaluation of a Clinically Relevant Drug–Drug Interaction Between Rosuvastatin and Clopidogrel and the Risk of Hepatotoxicity” (Frontiers in Pharmacology, 2021)", "key": {"[1]": {"test_system": "human primary hepatocytes", "assay": "Cytotoxicity (MTT, AST, LDH) in cryopreserved human hepatocytes", "assay_type": "cell-based", "description": "Cytotoxicity was determined with MTT assay in cryopreserved human hepatocytes. Thawing and plating of cryopreserved hepatocytes were carried out according to the manufacturer’s protocol. […] 11 μL of 5 mg/ml MTT was added to each well of the plate, and then the plate was incubated at 37°C for 3–4 h. After the medium was aspirated, 150 μL of DMSO was added to dissolve the formazan. The absorbance at 570 nm was measured and corrected for background absorption at 690 nm using a SpectraMax® i3 plate reader (Molecular Devices, Silicon Valley, CA, United States). AST and LDH levels in the medium of parallel processed plates were measured by commercially available assay kits. […] All experiments were performed in triplicate."}, "[2]": {"test_system": "human primary hepatocytes", "description": "Cytotoxicity was determined with MTT assay in cryopreserved human hepatocytes. Thawing and plating of cryopreserved hepatocytes were carried out according to the manufacturer’s protocol. Primary human hepatocytes at a density of 7×10^4 cells/well were cultured for 24 h after plating in 96-well collagen-coated plates. Then, the hepatocytes were treated with varying concentrations of RSV, CP, RSV plus CP, or tamoxifen and incubated for 24 or 96 h at 37°C. 11 μL of 5 mg/ml MTT was added to each well of the plate, and then the plate was incubated at 37°C for 3–4 h. After the medium was aspirated, 150 μL of DMSO was added to dissolve the formazan. The absorbance at 570 nm was measured and corrected for background absorption at 690 nm using a SpectraMax® i3 plate reader (Molecular Devices, Silicon Valley, CA, United States). AST and LDH levels in the medium of parallel processed plates were measured by commercially available assay kits. […] All experiments were performed in triplicate.\nA Shimadzu LC-20AD liquid chromatography system (Shimadzu, Kyoto, Japan) and an API5000 triple quadrupole tandem mass spectrometer (Applied Biosystems/Sciex, Framingham, MA, United States) coupled with an electrospray ionization (ESI) source was used for the determination of in vitro samples. Chromatographic separation was conducted with gradient elution on a Synergi Hydro-RP column (30 × 2.0 mm, 4 μm, Phenomenex, Torrance, CA, United States). […] The mobile phase consisted of methanol (A) and water (B), both containing 0.1% (V/V) formic acid. The flow rate was 0.5 ml/min and the gradient elution was run using the following program: 0.01 min (15% A)-1.0 min (95% A), 1.5 min (95% A)-1.51 min (15% A), 2.5 min (stop)."}, "[3]": {"assay": "Plasma pharmacokinetic study in rats", "description": "For the plasma pharmacokinetic study, 16 rats were randomly assigned into four groups (n = 4, each group, groups I to IV) and received oral (p.o.) administrations as oral gavage of CP (27 mg/kg) or the same volume of vehicle control for 20 days. Then, the rats were made to fast overnight before dosing but with free access to water. On day 21, rats in group I were treated with a p.o. dose as oral gavage of CP at 27 mg/kg and a single intravenous (i.v.) dose of RSV at 5 mg/kg. Rats in group II were treated with a p.o. dose as oral gavage of vehicle control and a single i.v. dose of RSV at 5 mg/kg. Rats in group Ⅲ were treated with a p.o. dose as oral gavage of CP at 27 mg/kg and a p.o. dose as oral gavage of RSV at 5 mg/kg. Rats in group Ⅳ were treated with a p.o. dose as oral gavage of vehicle control and a p.o. dose as oral gavage of RSV at 5 mg/kg. Blood samples (0.15 ml) were collected at 0, 1, 2, 5, 15, 30, 60, 120, 180, 360, 480, 600, and 720 min after administration of the i.v. dose of the RSV group and at 0, 5, 30, 60, 120, 180, 360, 480, 600, and 720 min for the p.o. dose as oral gavage of the RSV group. After each sampling, a volume of 0.15 ml physiologic saline solutions was administered to sustain isotonic fluid balance. Plasma samples were harvested by using a centrifuge and then stored at −80°C until analysis by LC-MS/MS.\nA Shimadzu LC-30AD liquid chromatography system (Shimadzu, Kyoto, Japan) and an API4000 triple quadruple tandem mass spectrometer (Applied Biosystems/Sciex, Framingham, MA, United States) coupled with an ESI source was used for the LC-MS/MS analysis of in vivo samples. The separation was carried out on an Agilent Extend C18 column (1.8 µm, 4.6 mm × 30 mm, Agilent Technologies). The mobile phase consisting of acetonitrile (A) and water (B: 1 mM ammonium acetate and 1% (V/V) formic acid). […] The flow rate was 1 ml/min and the gradient elution method was as follows: 0.01 min (10% A)-0.4 min (10% A), 0.8 min (95% A)-2.0 min (95% A), and 2.3 min (10% A)-2.5 min (stop).\nPhoenix WinNonlin® 7.1 (Pharsight Corporation, Mountain View, CA, United States) was used to calculate the pharmacokinetic parameters by the noncompartmental method. IC50 values were obtained by a computer-generated nonlinear least squares fit using GraphPad Prism 8.1 (GraphPad Software, San Diego, CA, United States). Statistical analysis was performed using SPSS ver. 22.0 (IBM, Chicago, IL, United States). The results are presented as mean ± S.D., unless otherwise stated. After testing for the homogeneity of variance, statistical analysis was performed with a one-way ANOVA followed by the LSD post hoc test or unpaired Student’s t-test. A probability (p) of less than 0.05, 0.01, and 0.001 was considered to be statistically significant, highly significant, and extremely significant, respectively."}, "[4]": {"details": "96 h co-exposure with 100 µM CP vs without CP"}, "[5]": {"details": "rats, p.o. RSV (group III vs IV)"}, "[6]": {"details": "rats, p.o. RSV (group III vs IV), not significant"}}, "note": "Where “and” joins values, the source holds several entries; their conditions need not be identical. Equal values may be shown once. Entries after “also recorded” stand apart in the source; their conditions may differ.", "data": [{"smiles": "COC(=O)[C@H](c1ccccc1Cl)N1CCc2sccc2C1", "note": "[CP, clopidogrel]", "values": [{"measurement": "Cytotoxicity (MTT)", "setting": "[1]; 24 and 96 h incubation", "value": "no effect on cell viability; also recorded: did not show hepatotoxic effects"}, {"measurement": "AST level in medium", "setting": "[1]; 96 h, presence of 100 µM CP", "value": "trend of increase"}, {"measurement": "LDH level in medium", "setting": "[1]; 96 h, presence of 100 µM CP", "value": "missed statistical significance"}, {"measurement": "Free medium concentration", "setting": "[2]; human", "value": "0.026 to 0.40", "unit": "nM"}, {"measurement": "Plasma concentration", "setting": "[3]; rats, after 8 h post-dosing", "value": "undetectable"}]}, {"smiles": "CC(C)c1nc(N(C)S(C)(=O)=O)nc(-c2ccc(F)cc2)c1/C=C/[C@@H](O)C[C@@H](O)CC(=O)O", "note": "[RSV, rosuvastatin]", "values": [{"measurement": "Cytotoxicity (MTT)", "setting": "[1]; 96 h, co-incubation with 100 µM CP where combined", "value": "dose-dependent cytotoxicity"}, {"measurement": "Cell to medium concentration ratio of RSV", "setting": "[2]; [4]", "value": "significantly increased; also recorded: significantly enhanced"}, {"measurement": "Intracellular concentration of RSV", "setting": "[2]; [4]", "value": "significantly increased; also recorded: significantly enhanced"}, {"measurement": "Vss (Vss/F)", "setting": "[3]; rat plasma, Group II: single i.v. RSV 5 mg/kg + p.o. vehicle control", "value": "1,148.40 ± 701.23 ml/kg"}, {"measurement": "RSV AUC in presence of CP relative to absence", "setting": "[3]; rats, i.v. RSV", "value": 1.76, "unit": "fold"}, {"measurement": "Decrease of RSV CL by multiple p.o. doses of CP", "setting": "[3]; rats, i.v. RSV (group I vs II)", "value": "42.62% and 42.6%"}, {"measurement": "Increase of RSV plasma AUC0-infinity by multiple p.o. doses of CP", "setting": "[3]; rats, i.v. RSV (group I vs II)", "value": 76.29, "unit": "%"}, {"measurement": "Increase of RSV plasma AUC0–12h by multiple p.o. doses of CP", "setting": "[3]; rats, i.v. RSV (group I vs II)", "value": 75.55, "unit": "%"}, {"measurement": "Increase of RSV Cmax by multiple p.o. doses of CP", "setting": "[3]; rats, i.v. RSV (group I vs II), not significant", "value": 110.32, "unit": "%"}, {"measurement": "RSV AUC in presence of CP relative to absence", "setting": "[3]; rats, p.o. RSV", "value": 1.87, "unit": "fold"}, {"measurement": "Decrease of RSV CL by multiple p.o. doses of CP", "setting": "[3]; [5]", "value": "43.27% and 43.3%"}, {"measurement": "Increase of RSV plasma AUC0-infinity by multiple p.o. doses of CP", "setting": "[3]; [5]", "value": 87.48, "unit": "%"}, {"measurement": "Increase of RSV plasma AUC0–12h by multiple p.o. doses of CP", "setting": "[3]; [5]", "value": 67.27, "unit": "%"}, {"measurement": "Decrease of RSV Vss by multiple p.o. doses of CP", "setting": "[3]; [6]", "value": 49.42, "unit": "%"}, {"measurement": "Increase of RSV Cmax by multiple p.o. doses of CP", "setting": "[3]; [6]", "value": 43.90, "unit": "%"}, {"measurement": "clearance", "setting": "[3]; read-out: CL (CL/F), rat plasma, Group II: single i.v. RSV 5 mg/kg + p.o. vehicle control", "value": 59.1, "unit": "mL/min/kg"}]}]}
